From patent publication US8148422B2, “Sulfonamides as TRPM8 modulators” (Janssen Pharmaceutica, NV, priority 2008, dated 2012)

Biological target: T1, canine TRPM8 (Canis lupus familiaris, UniProt Q1A7N1)
T1 construct: expressed in transfected cells
Experiment: In vitro canine TRPM8 functional assay (Ca2+-sensitive fluorescent dye, FLIPR or FDSS, icilin challenge)
Format: cell-based
Settings: HEK293 cells stably expressing canine TRPM8; for inhibition at 0.2 µM: 0.2 μM compound, icilin challenge; for IC50: icilin at approx. 80% maximal response, eight-point dose-response, single determinations unless otherwise noted, read-out: IC50
Method: The functional activity of compounds of the formula (I) was determined by measuring changes in intracellular calcium concentration using a Ca^2+-sensitive fluorescent dye. The changes in fluorescent signal were monitored by a fluorescence plate reader, either a FLIPR™ (Molecular Devices) or FDSS (Hamamatsu).
At 24 hrs prior to assay, HEK293 cells stably expressing canine TRPM8 were seeded in culture medium in black wall, clear-base poly-D-lysine coated 384-well plates (BD Biosciences, NJ, USA) and grown overnight in 5% CO2 at 37° C. On assay day, growth media was removed and cells were loaded with Calcium 3 Dye (Molecular Devices) for 35 min at 37° C., under 5% CO2 and then for 25 min at room temperature and atmosphere. Subsequently, cells were tested for agonist-induced increases in intracellular Ca^2+ levels using FLIPR™ or FDSS. Cells were challenged with a compound of the Formula (I) (at varying concentrations) and intracellular Ca^2+ was measured for 5 min prior to the addition of icilin to all wells to achieve a final concentration that produces approximately an 80% maximal response. EC50 or IC50 values for compounds of the present invention were determined from eight-point dose-response studies. Curves were generated using the average of quadruplicate wells for each data point.

T1 sequence (Q1A7N1 1-1104): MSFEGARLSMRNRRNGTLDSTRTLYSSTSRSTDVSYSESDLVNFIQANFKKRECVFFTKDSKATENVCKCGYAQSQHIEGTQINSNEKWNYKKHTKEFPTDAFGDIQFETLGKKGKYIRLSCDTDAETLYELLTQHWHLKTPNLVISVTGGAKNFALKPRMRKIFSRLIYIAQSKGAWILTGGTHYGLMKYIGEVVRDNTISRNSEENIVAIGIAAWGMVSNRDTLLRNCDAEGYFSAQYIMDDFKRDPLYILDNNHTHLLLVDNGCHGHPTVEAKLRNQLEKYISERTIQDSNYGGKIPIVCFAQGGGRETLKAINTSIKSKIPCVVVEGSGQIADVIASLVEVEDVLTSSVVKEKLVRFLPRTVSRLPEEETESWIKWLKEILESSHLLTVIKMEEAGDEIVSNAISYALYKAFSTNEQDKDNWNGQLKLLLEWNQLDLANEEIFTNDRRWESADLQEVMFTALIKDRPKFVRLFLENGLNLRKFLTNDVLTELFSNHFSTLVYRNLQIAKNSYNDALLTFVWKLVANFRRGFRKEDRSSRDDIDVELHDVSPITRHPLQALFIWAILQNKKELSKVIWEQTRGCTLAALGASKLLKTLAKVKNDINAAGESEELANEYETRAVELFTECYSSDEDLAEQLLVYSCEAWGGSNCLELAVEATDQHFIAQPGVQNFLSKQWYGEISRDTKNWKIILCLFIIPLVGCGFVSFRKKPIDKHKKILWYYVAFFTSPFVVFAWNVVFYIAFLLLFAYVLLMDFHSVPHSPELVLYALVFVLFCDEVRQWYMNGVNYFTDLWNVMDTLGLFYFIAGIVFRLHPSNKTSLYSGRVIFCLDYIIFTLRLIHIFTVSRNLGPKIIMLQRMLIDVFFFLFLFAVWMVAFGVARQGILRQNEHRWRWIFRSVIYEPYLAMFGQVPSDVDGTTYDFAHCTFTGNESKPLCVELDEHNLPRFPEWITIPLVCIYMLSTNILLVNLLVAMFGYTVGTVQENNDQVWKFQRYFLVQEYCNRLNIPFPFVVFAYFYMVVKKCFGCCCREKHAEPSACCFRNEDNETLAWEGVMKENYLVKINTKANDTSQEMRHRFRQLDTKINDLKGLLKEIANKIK

| SMILES | inhibition at 0.2 µM [%] | IC50 [nM] |
| --- | --- | --- |
| Cc1c(N(Cc2ccc(OC(F)(F)F)cc2)S(=O)(=O)CCN2CC(C)CC(C)C2)sc2ccccc12 (stereo not drawn) [Cpd 21, N-(3-Methylbenzo[b]thiophen-2-yl)-N-(4-trifluoromethoxy-benzyl)-2-(3,5-dimethylpiperidin-1-yl)ethylsulfonamide] | 100 | 52 |
| CC(=O)N1CCN(CCS(=O)(=O)N(Cc2ccc(OC(F)(F)F)cc2)c2ccc3ccccc3c2)CC1 [Cpd 58, N-(Naphth-2-yl)-N-(4-trifluoromethoxy-benzyl)-2-(4-acetylpiperazin-1-yl)ethylsulfonamide] | 67 | – |
| CC(=O)N1CCN(CCS(=O)(=O)N(Cc2ccc(OC(F)(F)F)cc2)c2sc3ccccc3c2Br)CC1 [Cpd 65, N-(3-Bromobenzo[b]thiophen-2-yl)-N-(4-trifluoromethoxy-benzyl)-2-(4-acetyl-1-piperazinyl)ethylsulfonamide] | 101 | 41 |
| CCOC(=O)C1CCN(CCS(=O)(=O)N(CCCCC(F)(F)F)c2sc3ccccc3c2C)CC1 [Cpd 85, N-(3-Methylbenzo[b]thiophen-2-yl)-N-(5,5,5-trifluoropent-1-yl)-2-(4-carboethoxypiperidin-1-yl)ethylsulfonamide] | 77 | 81 |
| CCCN(CCC)CCS(=O)(=O)N(Cc1ccc(OC(F)(F)F)cc1)c1cc2ccccc2s1 [Cpd 1, N-(Benzo[b]thiophen-2-yl)-N-(4-trifluoromethoxy-benzyl)-2-(di-propylamino)ethylsulfonamide] | 78 | 114 |
| O=S(=O)(CCN1CCc2ccccc2C1)N(Cc1ccc(OC(F)(F)F)cc1)c1ccc2ccccc2c1 [Cpd 54, N-(Naphth-2-yl)-N-(4-trifluoromethoxy-benzyl)-2-(1,2,3,4-tetrahydroisoquinolin-2-yl)ethylsulfonamide] | 86 | 51 |
| Cc1c(N(CCC2CC2)S(=O)(=O)CCN2CCC(C(=O)O)CC2)sc2ccccc12 [Cpd 87, N-(3-Methylbenzo[b]thiophen-2-yl)-N-(2-cyclopropylethyl)-2-(4-carboxypiperidin-1-yl)ethylsulfonamide] | 29 | – |
| Cc1c(N(Cc2ccc(OC(F)(F)F)cc2)S(=O)(=O)CCN2CCN(C)CC2)sc2ccccc12 [Cpd 28, N-(3-Methylbenzo[b]thiophen-2-yl)-N-(4-trifluoromethoxy-benzyl)-2-(4-methylpiperazin-1-yl)ethylsulfonamide] | 25 | – |
| CCOC(=O)C1CCN(CCS(=O)(=O)N(CCC2CC2)c2sc3ccccc3c2C)CC1 [Cpd 84, N-(3-Methylbenzo[b]thiophen-2-yl)-N-(2-cyclopropyl-ethyl)-2-(4-carboethoxypiperidin-1-yl)ethylsulfonamide] | 97 | 72 |
| O=S(=O)(CCN1CC(F)(F)C1)N(Cc1ccc(OC(F)(F)F)cc1)c1ccc2ccccc2c1 [Cpd 55, N-(Naphth-2-yl)-N-(4-trifluoromethoxy-benzyl)-2-(3,3-difluoroazetidin-1-yl)ethylsulfonamide] | 84 | 109 |
| O=S(=O)(CCN1CCC(c2ccccc2)CC1)N(Cc1ccc(OC(F)(F)F)cc1)c1ccc2ccccc2c1 [Cpd 53, N-(Naphth-2-yl)-N-(4-trifluoromethoxy-benzyl)-2-(4-phenylpiperidin-1-yl)ethylsulfonamide] | 58 | – |
| Cc1c(N(Cc2ccc(OC(F)(F)F)cc2)S(=O)(=O)CCN2CCC(CO)CC2)sc2ccccc12 [Cpd 23, N-(3-Methylbenzo[b]thiophen-2-yl)-N-(4-trifluoromethoxy-benzyl)-2-(4-hydroxymethylpiperidin-1-yl)ethylsulfonamide] | 97 | 44 |

Second part, the molecule after the results:

| inhibition at 0.2 µM [%] | IC50 [nM] | SMILES |
| --- | --- | --- |
| 99 | 29 | CCCN(C)CCS(=O)(=O)N(Cc1ccc(OC(F)(F)F)cc1)c1sc2ccccc2c1C [Cpd 7, N-(3-Methylbenzo[b]thiophen-2-yl)-N-(4-trifluoromethoxy-benzyl)-2-(methyl-propylamino)ethylsulfonamide] |
| 99 | 26 | Cc1c(N(Cc2ccc(OC(F)(F)F)cc2)S(=O)(=O)CCN2CCCCC2)sc2ccccc12 [Cpd 18, N-(3-Methylbenzo[b]thiophen-2-yl)-N-(4-trifluoromethoxy-benzyl)-2-(piperidin-1-yl)ethylsulfonamide] |
| 100 | 4 | Cc1c(N(Cc2ccc(OC(F)(F)F)cc2)S(=O)(=O)CCN2CCC[C@H]2C(F)(F)F)sc2ccccc12 [Cpd 71, N-(3-Methylbenzo[b]thiophen-2-yl)-N-(4-trifluoromethoxy-benzyl)-2-[2(S)-trifluoromethyl-pyrrolidin-1-yl]ethylsulfonamide] |
| 99 | 13 | Cc1c(N(Cc2ccc(OC(F)(F)F)cc2)S(=O)(=O)CCN2[C@H](C)CCC[C@@H]2C)sc2ccccc12 [Cpd 22, N-(3-Methylbenzo[b]thiophen-2-yl)-N-(4-trifluoromethoxy-benzyl)-2-(cis-2,6-dimethylpiperidin-1-yl)ethylsulfonamide] |
| 100 | 10 | Cc1c(N(Cc2ccc(OC(F)(F)F)cc2)S(=O)(=O)CCN2CCC[C@@H]2C(F)(F)F)sc2ccccc12 [Cpd 72, N-(3-Methylbenzo[b]thiophen-2-yl)-N-(4-trifluoromethoxy-benzyl)-2-[2(R)-trifluoromethyl-pyrrolidin-1-yl]ethylsulfonamide] |
| 99 | 12 | Cc1c(N(Cc2ccc(OC(F)(F)F)cc2)S(=O)(=O)CCN2CCOCC2)sc2ccccc12 [Cpd 32, N-(3-Methylbenzo[b]thiophen-2-yl)-N-(4-trifluoromethoxy-benzyl)-2-(morpholin-4-yl)ethylsulfonamide] |
| 98 | 24 | CCCN(CCC)CCS(=O)(=O)N(Cc1ccc(OC(F)(F)F)cc1)c1sc2ccccc2c1Cl [Cpd 4, N-(3-Chlorobenzo[b]thiophen-2-yl)-N-(4-trifluoromethoxy-benzyl)-2-(di-propylamino)ethylsulfonamide] |
| 92 | 33 | O=S(=O)(CCN1CCCCC1)N(Cc1ccc(OC(F)(F)F)cc1)c1cc2ccccc2s1 [Cpd 2, N-(Benzo[b]thiophen-2-yl)-N-(4-trifluoromethoxy-benzyl)-2-(piperidin-1-yl)ethylsulfonamide] |
| 100 | 22 | Cc1c(N(Cc2ccc(OC(F)(F)F)cc2)S(=O)(=O)CCN(C)CC(C)C)sc2ccccc12 [Cpd 11, N-(3-Methylbenzo[b]thiophen-2-yl)-N-(4-trifluoromethoxy-benzyl)-2-(methyl-isobutylamino)ethylsulfonamide] |
| 101 | 19 | CCN(CC)CCS(=O)(=O)N(Cc1ccc(OC(F)(F)F)cc1)c1sc2ccccc2c1C [Cpd 9, N-(3-Methylbenzo[b]thiophen-2-yl)-N-(4-trifluoromethoxy-benzyl)-2-(diethylamino)ethylsulfonamide] |
| 101 | 6 | CC(C)CN(CCS(=O)(=O)N(Cc1ccc(OC(F)(F)F)cc1)c1sc2ccccc2c1Br)CC(C)C [Cpd 63, N-(3-Bromobenzo[b]thiophen-2-yl)-N-(4-trifluoromethoxy-benzyl)-2-(di-iso-butylamino)ethylsulfonamide] |
